Test results published in article PMC5120204, “Identification of an orally active small-molecule PTHR1 agonist for the treatment of hypoparathyroidism” (Nature Communications, 2016).

Test system: normal dogs
Experiment: Preclinical toxicology studies
Assay type: in vivo, dog

For `Cc1cc(N2C(=O)NC(=O)C2(C)C)cc(C)c1CCS(=O)(=O)N1CCC2(CC1)N=C(c1ccc(OC(F)(F)F)cc1)NC2=O` [PCO371, 1-{3,5-dimethyl-4-[2-({4-oxo-2-[4-(trifluoromethoxy)phenyl]-1,3,8-triazaspiro[4.5]dec-1-en-8-yl}sulfonyl)ethyl]phenyl}-5,5-dimethylimidazolidine-2,4-dione], the serious side effects (one-month toxicology studies in normal dogs) was “not any serious side effects” and the serious side effects (preclinical toxicology studies) was “no serious side effects”.
